Data: paper PMC8653649, “Promising Hybrids Derived from S-Allylcysteine and NSAIDs Fragments against Colorectal Cancer: Synthesis, In-vitro Evaluation, Drug-Likeness and In-silico ADME/tox Studies” (Iranian Journal of Pharmaceutical Research : IJPR, 2021)
Where two headings read alike, the source gives them in different places.

Assays:
[1] = test system: SW480 human colon adenocarcinoma cells; test: Sulforhodamine B (SRB) growth inhibition / cytotoxicity, SW480; format: cell-based; conditions: for IC50: Homo sapiens, SRB, mean ± SE; for IC50 / cytotoxic activity (in words): SW480; for cytotoxic activity (in words): 24 h and 48 h after treatment; for SI (selectivity index): ratio IC50 CHO-K1 / IC50 SW480;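 for all read-outs here: cells exposed to graded doses from 10^-5 to 0.2 mM, with 1% DMSO as vehicle control, and cellular protein quantified by SRB staining after trichloroacetic acid fixation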
Experimental: Cells were cultured in 25-cm^2 flasks containing Dulbecco’s Modified Eagle Medium, supplemented with 10% heat-inactivated (56 °C) horse serum, 1% penicillin/streptomycin and 1% non-essential amino acids (Gibco Invitrogen, Carlsbad, USA). For all experiments, horse serum was reduced to 3%, and the medium was supplemented with 5 mg/mL transferrin, 5 mg/mL selenium and 10 mg/mL insulin (ITS-defined medium; Gibco, Invitrogen, Carlsbad, USA) ([33]).

[2] = test system: non-malignant CHO-K1 cell line; test: Sulforhodamine B (SRB) growth inhibition / cytotoxicity, CHO-K1; format: cell-based; conditions: Cricetulus griseus, mean ± SE, read-out: IC50 (mM) CHO-K1 cells
Experimental: Biological assays were performed using adenocarcinoma colon cancer (SW480) and non-malignant (CHO-K1) cell lines obtained from The European Collection of Authenticated Cell Cultures (ECACC, England). Cells were cultured in 25-cm^2 flasks containing Dulbecco’s Modified Eagle Medium, supplemented with 10% heat-inactivated (56 °C) horse serum, 1% penicillin/streptomycin and 1% non-essential amino acids (Gibco Invitrogen, Carlsbad, USA). For all experiments, horse serum was reduced to 3%, and the medium was supplemented with […] (ITS-defined medium; Gibco, Invitrogen, Carlsbad, USA) ([33]).
The growth inhibition of the ethanol extract, the Chromone and 5-fluorouracil (5-FU; the standard drug) was evaluated through sulforhodamine B (SRB) assay, a colorimetric test that is based on staining of total cellular protein of adherent cells. Cells were seeded to a ﬁnal density of 20.000 cells/well in 96-well tissue culture plates and incubated at 37 °C in a humidified atmosphere at 5% CO2. All cultures were allowed to grow for 24 h. Afterward, they were treated with 1% of DMSO (vehicle control) or increasing concentrations (10^-5–0,2 mM) of the compounds. After treatment, cells were fixed with trichloroacetic acid (50% v/v; MERCK) for one hour at 4 °C. Cell proteins were determined by staining with SRB (0.4% w/v; Sigma-Aldrich, United States), then they were washed with 1% acetic acid to remove unbound SRB and left for air-drying. Protein-bound SRB was solubilized in 10 mM Tris-base, and the absorbance was measured at 492 nm in a microplate reader (Mindray MR-96A) ([33], [34]). All experiments were performed in quintuplicate. These values were used to calculate the IC50, through dose-response curves for each compound and the selectivity index (SI), by the ratio of IC50 values in non-malignant CHO-K1 cells to IC50 of SW480 cells.
All experiments were performed at least three times. Data are reported as mean ± SE (standard error). Statistical differences between the control group (non-treated) and treated cells were evaluated by one-way ANOVA followed by the Dunnett’s test. Values with p ≤ 0.05 were considered significant. Data were analyzed with GraphPad Prism version 7.04 for Windows (Graph Pad Software, San Diego, California, USA).

non-cancer CCD841 cells = test system: non-cancer CCD841 cells; set-up: method as in PMID 30429977; conditions: compared with CRC cell lines; cited from earlier work

With `C=CCSC[C@H](NC(=O)C(C)c1ccc2cc(OC)ccc2c1)C(=O)OC` (mixture of isomers) [11a, Methyl S-allyl-N-(2-(6-methoxynaphthalen-2-yl)propanoyl)-L-cysteinate] the IC50 ([1]; 24 h) was greater than 0.2 mM, the IC50 ([1]; 48 h) was greater than 0.2 mM and the “cytotoxic activity (in words)” value [1] was “displayed activity neither 24 h nor 48 h”. The IC50 ([2]; 24 h) was greater than 0.2 mM and the IC50 ([2]; 48 h) was greater than 0.2 mM.

For `C=CCSC[C@H](NC(=O)C(C)c1ccc2cc(OC)ccc2c1)C(=O)OCC` (mixture of isomers) [11b, Ethyl S-allyl-N-(2-(6-methoxynaphthalen-2-yl)propanoyl)-L-cysteinate], the “SI (selectivity index)” value ([1]; 48 h) was greater than 1.28, the IC50 ([1]; 24 h) was greater than 0.2 mM and the IC50 ([1]; 48 h) was 0.156 ± 0.008 mM. For the same molecule, the IC50 ([2]; 24 h) was greater than 0.2 mM and the IC50 ([2]; 48 h) was greater than 0.2 mM.

With `C=CCSC[C@H](NC(=O)C(C)c1ccc2cc(OC)ccc2c1)C(=O)OCCC` (mixture of isomers) [11c, Propyl S-allyl-N-(2-(6-methoxynaphthalen-2-yl)propanoyl)-L-cysteinate] the IC50 ([1]; 24 h) was greater than 0.2 mM, the IC50 ([1]; 48 h) was 0.237 ± 0.012 mM and the “cytotoxic activity (in words)” value [1] was “displayed activity neither 24 h nor 48 h”. It also gave an IC50 ([2]; 24 h) greater than 0.2 mM and an IC50 ([2]; 48 h) greater than 0.2 mM.

With `C=CCSC[C@H](NC(=O)C(C)c1ccc(CC(C)C)cc1)C(=O)OC` (mixture of isomers) [12a, Methyl S-allyl-N-(2-(4-isobutylphenyl)propanoyl)-L-cysteinate] the “SI (selectivity index)” value ([1]; 48 h) was 0.82, the IC50 ([1]; 24 h) was greater than 0.2 mM and the IC50 ([1]; 48 h) was 0.244 ± 0.011 mM. The “cytotoxic activity (in words)” value [1] was “displayed activity neither 24 h nor 48 h”, the IC50 ([2]; 24 h) was greater than 0.2 mM and the IC50 ([2]; 48 h) was 0.201 ± 0.001 mM. For the same molecule, the melting point was 89 to 91 °C.

For `C=CCSC[C@H](NC(=O)C(C)c1ccc(CC(C)C)cc1)C(=O)OCC` (mixture of isomers) [12b, Ethyl S-allyl-N-(2-(4-isobutylphenyl)propanoyl)-L-cysteinate], the “SI (selectivity index)” value ([1]; 48 h) was 1.31, the IC50 ([1]; 24 h) was greater than 0.2 mM and the IC50 ([1]; 48 h) was 0.183 ± 0.005 mM. For the same molecule, the IC50 ([2]; 24 h) was greater than 0.2 mM, the IC50 ([2]; 48 h) was 0.241 ± 0.018 mM and the melting point was 65 to 67 °C.

In the case of `C=CCSC[C@H](NC(=O)C(C)c1ccc(CC(C)C)cc1)C(=O)OCCC` (mixture of isomers) [12c, Propyl S-allyl-N-(2-(4-isobutylphenyl)propanoyl)-L-cysteinate], the “SI (selectivity index)” value ([1]; 24 h) is reported as greater than 1.1, the IC50 ([1]; 24 h) is reported as 0.225 ± 0.01 mM and the IC50 ([1]; 48 h) is reported as 0.209 ± 0.005 mM. The “cytotoxic activity (in words)” value [1] was “displayed activity neither 24 h nor 48 h”, the IC50 ([2]; 24 h) was greater than 0.2 mM and the IC50 ([2]; 48 h) was greater than 0.2 mM. It also gave a melting point of 58 to 60 °C.

For `O=c1[nH]cc(F)c(=O)[nH]1` [5-Fluorouracil, reference compound], the “SI (selectivity index)” value ([1]; 48 h) was 1.22, the “SI (selectivity index)” value ([1]; 48 h, listed as 5-fluorouracil) was “higher than 1” and the IC50 ([1]; 24 h) was 0.096 ± 0.024 mM. The IC50 ([1]; 48 h) was 0.037 ± 0.013 mM, the IC50 ([2]; 24 h) was 0.125 ± 0.022 mM and the IC50 ([2]; 48 h) was 0.046 ± 0.015 mM.

With `C=CCSC[C@H](NC(=O)c1ccccc1O)C(=O)OC` [9a, Methyl S-allyl-N-(2-hydroxybenzoyl)-L-cysteinate] the “SI (selectivity index)” value ([1]; 24 h) was less than 0.73, the “SI (selectivity index)” value ([1]; 48 h) was less than 0.80 and the IC50 ([1]; 24 h) was greater than 0.2 mM. For the same molecule, the IC50 ([1]; 48 h) was greater than 0.2 mM, the “cytotoxic activity (in words)” value [1] was “displayed activity neither 24 h nor 48 h” and the IC50 ([2]; 24 h) was 0.146 ± 0.016 mM. The IC50 ([2]; 48 h) was 0.157 ± 0.005 mM and the melting point was 112 to 114 °C.

With `C=CCSC[C@H](NC(=O)c1ccccc1O)C(=O)OCC` [9b, Ethyl S-allyl-N-(2-hydroxybenzoyl)-L-cysteinate] the “SI (selectivity index)” value ([1]; 24 h) was greater than 1.25, the IC50 ([1]; 24 h) was 0.16 ± 0.013 mM and the IC50 ([1]; 48 h) was greater than 0.2 mM. It also gave an IC50 ([2]; 24 h) greater than 0.2 mM and an IC50 ([2]; 48 h) greater than 0.2 mM.

For `C=CCSC[C@H](NC(=O)c1ccccc1O)C(=O)OCCC` [9c, Propyl S-allyl-N-(2-hydroxybenzoyl)-L-cysteinate], the IC50 ([1]; 24 h) was greater than 0.2 mM, the IC50 ([1]; 48 h) was greater than 0.2 mM and the “cytotoxic activity (in words)” value [1] was “displayed activity neither 24 h nor 48 h”. For the same molecule, the IC50 ([2]; 24 h) was greater than 0.2 mM and the IC50 ([2]; 48 h) was greater than 0.2 mM.

With `C=CCSC[C@H](NC(=O)Cc1ccccc1Nc1c(Cl)cccc1Cl)C(=O)OC` [10a, Methyl S-allyl-N-(2-(2-((2,6-dichlorophenyl)amino)phenyl)acetyl)-L-cysteinate] the IC50 ([1]; 24 h) was 0.192 ± 0.004 mM, the IC50 ([1]; 48 h) was 0.12 ± 0.004 mM and the IC50 ([2]; 24 h) was 0.18 ± 0.012 mM. It also gave an IC50 ([2]; 48 h) of 0.112 ± 0.008 mM.

With `C=CCSC[C@H](NC(=O)Cc1ccccc1Nc1c(Cl)cccc1Cl)C(=O)OCC` [10b, Ethyl S-allyl-N-(2-(2-((2,6-dichlorophenyl)amino)phenyl)acetyl)-L-cysteinate] the “SI (selectivity index)” value ([1]; 48 h) was greater than 1.53, the IC50 ([1]; 24 h) was 0.24 ± 0.013 mM and the IC50 ([1]; 48 h) was 0.131 ± 0.012 mM. It also gave an IC50 ([2]; 24 h) greater than 0.2 mM and an IC50 ([2]; 48 h) greater than 0.2 mM.

For `C=CCSC[C@H](NC(=O)Cc1ccccc1Nc1c(Cl)cccc1Cl)C(=O)OCCC` [10c, Propyl S-allyl-N-(2-(2-((2,6-dichlorophenyl)amino)phenyl)acetyl)-L-cysteinate], the “SI (selectivity index)” value ([1]; 24 h) was 1.09, the “SI (selectivity index)” value ([1]; 48 h) was 1.06 and the IC50 ([1]; 24 h) was 0.204 ± 0.005 mM. The IC50 ([1]; 48 h) was 0.158 ± 0.002 mM, the IC50 ([2]; 24 h) was 0.223 ± 0.005 mM and the IC50 ([2]; 48 h) was 0.167 ± 0.1 mM.

For `CC(=O)Oc1ccccc1C(=O)O` [Aspirin, reference compound], the IC50 ([1]; 24 h) was greater than 0.2 mM, the IC50 ([1]; 48 h) was greater than 0.2 mM and the IC50 ([2]; 24 h) was greater than 0.2 mM. It also gave an IC50 ([2]; 48 h) greater than 0.2 mM.

For `O=C(O)Cc1ccccc1Nc1c(Cl)cccc1Cl` [Diclofenac, reference compound], the “SI (selectivity index)” value ([1]; 48 h) was 0.98, the IC50 ([1]; 24 h) was 0.267 ± 0.01 mM and the IC50 ([1]; 48 h) was 0.206 ± 0.011 mM. For the same molecule, the IC50 ([2]; 24 h) was greater than 0.2 mM and the IC50 ([2]; 48 h) was 0.202 ± 0.001 mM.

In the case of `CC(C)Cc1ccc(C(C)C(=O)O)cc1` (stereo not drawn) [Ibuprofen, reference compound], the IC50 ([1]; 24 h) is reported as greater than 0.2 mM, the IC50 ([1]; 48 h) is reported as greater than 0.2 mM and the IC50 ([2]; 24 h) is reported as greater than 0.2 mM. The IC50 ([2]; 48 h) was greater than 0.2 mM.

`COc1ccc2cc([C@H](C)C(=O)O)ccc2c1` [Naproxen, reference compound] showed an IC50 ([2]; 24 h) greater than 0.2 mM and an IC50 ([2]; 48 h) greater than 0.2 mM.

In the case of `COc1ccc(/C=C/C(=O)c2ccc(Cl)cc2)c(OC(=O)c2ccccc2OC(C)=O)c1` [compound 4], the “fold less inhibitory activity against non-cancer CCD841 cells” value (non-cancer CCD841 cells) is given as 8 fold.
